Structures are written as SMILES.

The target in the assay is T1, human OX2R (Homo sapiens, UniProt O43614).
T1 construct: host or cells: CHO-K1 (Chinese Hamster Ovary K1)
T1 sequence (O43614 1-444): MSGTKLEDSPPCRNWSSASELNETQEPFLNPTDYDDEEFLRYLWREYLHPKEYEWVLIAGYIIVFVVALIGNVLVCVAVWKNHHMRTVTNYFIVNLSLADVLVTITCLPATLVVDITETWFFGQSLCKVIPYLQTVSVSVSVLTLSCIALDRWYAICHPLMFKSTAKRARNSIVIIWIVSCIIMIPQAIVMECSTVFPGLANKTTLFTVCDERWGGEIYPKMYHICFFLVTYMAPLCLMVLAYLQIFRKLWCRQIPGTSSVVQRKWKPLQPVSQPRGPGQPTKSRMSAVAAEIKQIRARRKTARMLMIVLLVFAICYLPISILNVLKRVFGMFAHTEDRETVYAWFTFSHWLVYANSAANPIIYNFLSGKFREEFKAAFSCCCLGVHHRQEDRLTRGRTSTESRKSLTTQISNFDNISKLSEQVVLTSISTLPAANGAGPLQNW
Briefly: Evaluation of OX2R agonist activity (intracellular calcium, CHO-K1 cells with forced expression of human OX2R). The format is cell-based. Particulars: CHO-K1 cells expressing human OX2R; 100% = 5 µM of the reference compound; read-out: hOX2R EC50. Here is the method: Evaluation of OX2R agonist activity
Chinese Hamster Ovary K1 (CHO-K1) cells (GenScript) with forced expression of human OX2R were seeded onto a 384 well microplate (Corning) at 7500 cells/well and cultured for 24 hours. 20 µL of the loading buffer (25 mM HEPES containing 1.25 mM of Probenecid and 2.5 µg/mL of Fluo 4-AM at final concentration, Hank's balanced salt solution, 0.06% Pluronic F-127, Quenching buffer) in the Calcium Kit II (DOJINDO LABORATORIES) was added, and the microplate was allowed to stand for 30 minutes. A reference compound (Example435 of WO 2019/027058, N-[(2S,3S)-2-[[3-(3,5-difluorophenyl)-2-fluoro-phenyl]methyl]-1-(2-hydroxy-2-methylpropanoyl)pyrrolidin-3-yl]ethanesulfonamide) or the test compound was added in 10 µL, and changes in intracellular calcium ion concentration were measured using FDSS7000EX (Hamamatsu Photonics K.K.) as a fluorescence intensity ratio obtained upon dual wavelength excitation at 480 nm and 540 nm. Note that the reference compound or test compound was dissolved in DMSO (final concentration of DMSO was 0.5%) and diluted with an assay buffer (20 mM HEPES, Hank's balanced salt solution, 0.1% BSA). The difference between the maximum and minimum fluorescence values between 5 and 7 seconds after the addition of the test compound or reference compound was used as the indicator. The value of wells to which the assay buffer containing no test compound was added was defined as 0%, and the value of wells to which 5 µM of the reference compound was added was defined as 100%. The 50% effective concentration (EC50 value) was determined from the values obtained when various concentrations of the test compound were added. […]
In general terms: A change in cytosolic calcium serves as a functional read-out for many receptors and channels.
The EC50 is the concentration giving half of the maximal effect. `CC(=O)N1C2CC(F)(C2)[C@H](NS(C)(=O)=O)[C@@H]1Cc1cccc(-c2cccc(Cl)c2)c1F` [Example 46, N-{(3S,4R)-2-Acetyl-3-[(3'-chloro-2-fluoro[biphenyl]-3-yl)methyl]-5-fluoro-2-azabicyclo[3.1.1]heptan-4-yl}methanesulfonamide]: the EC50 came to 106 nM.
As to `CC(C)(O)C(=O)N1C2CC(F)(C2)[C@H](NS(C)(=O)=O)[C@@H]1Cc1cccc(-c2cccc(C(F)F)c2)c1F` [Example 49, N-[(3S,4R)-3-{[3'-(Difluoromethyl)-2-fluoro[biphenyl]-3-yl]methyl}-5-fluoro-2-(2-hydroxy-2-methylpropanoyl)-2-azabicyclo[3.1.1]heptan-4-yl]methanesulfonamide], the EC50 turned out to be 20 nM.
As for `O=C([C@H]1C[C@H]1F)N1C2CC(C2)[C@H](NS(=O)(=O)C2CC2)[C@@H]1Cc1cccc(-c2ccccc2)c1F` [Example 45, N-[(3S,4S)-3-[(2-Fluoro[biphenyl]-3-yl)methyl]-2-{[(1R,2R)-2-fluorocyclopropyl]carbonyl}-2-azabicyclo[3.1.1]heptan-4-yl]cyclopropanesulfonamide], the EC50 was determined as 115 nM.
Next, `CCNC(=O)N1C2CC(C2)[C@H](NS(C)(=O)=O)[C@@H]1Cc1cccc(-c2ccccc2)c1F` [Example 37, (3S,4S)-N-Ethyl-3-[(2-fluoro[biphenyl]-3-yl)methyl]-4-[(methylsulfonyl)amino]-2-azabicyclo[3.1.1]heptane-2-carboxamide]: 18 nM; `CS(=O)(=O)NC1C2CC(C2)N(C(=O)C2CC2)C1Cc1ccnc(-c2cccc(Cl)c2)c1F` (single isomer, unassigned) [Example 60, N-[3-{[2-(3-Chlorophenyl)-3-fluoropyridin-4-yl]methyl}-2-(cyclopropylcarbonyl)-2-azabicyclo[3.1.1]heptan-4-yl]methanesulfonamide]: 75 nM; `CC(C)(O)C(=O)N1C2CC(C2)[C@H](NS(C)(=O)=O)[C@@H]1Cc1cccc(-c2cccc(F)c2F)c1F` [Example 8, N-{(3S,4S)-2-(2-Hydroxy-2-methylpropanoyl)-3-[(2,2',3'-trifluoro[biphenyl]-3-yl)methyl]-2-azabicyclo[3.1.1]heptan-4-yl}methanesulfonamide]: 83 nM.
Next, `C[C@@H](O)C(=O)N1C2CC(C2)[C@H](NS(C)(=O)=O)[C@@H]1Cc1cccc(-c2cccc(OC(F)(F)F)c2)c1F` [Example 42, N-{(3S,4S)-3-{[2-Fluoro-3'-(trifluoromethoxy)[biphenyl]-3-yl]methyl}-2-[(2R)-2-hydroxypropanoyl]-2-azabicyclo[3.1.1]heptan-4-yl}methanesulfonamide]: 28 nM; `CCS(=O)(=O)NC1C2CC(C2)N(C(=O)N(C)C)C1Cc1cccc(-c2cc(F)cc(F)c2)c1F` (single isomer, unassigned) [Example 7, 4-[(Ethylsulfonyl)amino]-N,N-dimethyl-3-[(2,3',5'-trifluoro[biphenyl]-3-yl)methyl]-2-azabicyclo[3.1.1]heptane-2-carboxamide]: 213 nM; `COCC(=O)N1C2CC(C2)[C@H](NS(C)(=O)=O)[C@@H]1Cc1cccc(-c2cc(F)cc(F)c2)c1F` [Example 28, N-{(3S,4S)-2-(Methoxyacetyl)-3-[(2,3',5'-trifluoro[biphenyl]-3-yl)methyl]-2-azabicyclo[3.1.1]heptan-4-yl}methanesulfonamide]: 247 nM.
As for `CCS(=O)(=O)NC1C2CC(C2)N(C(=O)C23CC(C2)C3)C1Cc1cccc(-c2cc(F)cc(F)c2)c1F` (single isomer, unassigned) [Example 5, N-{2-(Bicyclo[1.1.1]pentan-1-ylcarbonyl)-3-[(2,3',5'-trifluoro[biphenyl]-3-yl)methyl]-2-azabicyclo[3.1.1]heptan-4-yl}ethanesulfonamide], the EC50 stood at 239 nM.
With `CCS(=O)(=O)NC1C2CC(C2)N(C(=O)[C@@H](C)O)C1Cc1cc(F)cc(-c2ccccc2)c1F` (single isomer, unassigned) [Example 81], the concentration for a half-maximal effect (EC50) is 43 nM.
Regarding `C[C@@H](O)C(=O)N1C2CC(C2)[C@H](NS(C)(=O)=O)[C@@H]1Cc1cccc(-c2cccc3c2OC(F)(F)O3)c1F` [Example 38, N-{(3S,4S)-3-[3-(2,2-Difluoro-1,3-benzodioxol-4-yl)-2-fluorobenzyl]-2-[(2R)-2-hydroxypropanoyl]-2-azabicyclo[3.1.1]heptan-4-yl}methanesulfonamide], the concentration giving a half-maximal response (EC50) came to 68 nM.
To `CC(C)(O)C(=O)N1C2CC(C2)C(NS(=O)(=O)CF)C1Cc1cccc(-c2cc(F)cc(F)c2)c1F` (single isomer, unassigned) [Example 6, 1-Fluoro-N-{2-(2-hydroxy-2-methylpropanoyl)-3-[(2,3',5'-trifluoro[biphenyl]-3-yl)methyl]-2-azabicyclo[3.1.1]heptan-4-yl}methanesulfonamide] belongs 69 nM; to `CCS(=O)(=O)N[C@H]1C2CC(C2)N(C(=O)C(C)(C)O)[C@H]1Cc1cccc(-c2cc(F)cc(F)c2)c1F` (single isomer, unassigned) [Example 3], 92 nM.
In the case of `C[C@@H](O)C(=O)N1C2CC(C2)[C@H](NS(C)(=O)=O)[C@@H]1Cc1cccc(-c2cc(F)cc(F)c2)c1F` [Example 16, N-{(3S,4S)-2-[(2R)-2-Hydroxypropanoyl]-3-[(2,3',5'-trifluoro[biphenyl]-3-yl)methyl]-2-azabicyclo[3.1.1]heptan-4-yl}methanesulfonamide], the concentration for a half-maximal effect (EC50) came to 11 nM.
Next, `C[C@@H](O)C(=O)N1C2CC(F)(C2)C(NS(C)(=O)=O)C1Cc1cccc(-c2cc(F)cc(F)c2)c1F` (single isomer, unassigned) [Example 23, N-{(3S,4R)-5-Fluoro-2-[(2R)-2-hydroxypropanoyl]-3-[(2,3',5'-trifluoro[biphenyl]-3-yl)methyl]-2-azabicyclo[3.1.1]heptan-4-yl}methanesulfonamide or N-{(3R,4S)-5-fluoro-2-[(2R)-2-hydroxypropanoyl]-3-[(2,3',5'-trifluoro[biphenyl]-3-yl)methyl]-2-azabicyclo[3.1.1]heptan-4-yl}methanesulfonamide]: 34 nM.
As for `C[C@@H](O)C(=O)N1C2CC(C2)[C@H](NS(C)(=O)=O)[C@@H]1Cc1cccc(-c2cccc(C3CC3)c2)c1F` [Example 41, N-{(3S,4S)-3-[(3'-Cyclopropyl-2-fluoro[biphenyl]-3-yl)methyl]-2-[(2R)-2-hydroxypropanoyl]-2-azabicyclo[3.1.1]heptan-4-yl}methanesulfonamide], the EC50 was 31 nM.
Next, `CS(=O)(=O)N[C@@H]1[C@H](Cc2cccc(-c3ccccc3)c2F)N(C(=O)c2ccon2)C2CC1(F)C2` (single isomer, unassigned) [Example 84]: 231 nM; `CS(=O)(=O)N[C@H]1C2CC(C2)N(C(=O)[C@H]2C[C@@H]2F)[C@H]1Cc1cccc(-c2cc(F)cc(F)c2)c1F` [Example 29, N-{(3S,4S)-2-{[(1R,2S)-2-Fluorocyclopropyl]carbonyl}-3-[(2,3',5'-trifluoro[biphenyl]-3-yl)methyl]-2-azabicyclo[3.1.1]heptan-4-yl}methanesulfonamide]: 253 nM; `CCC(=O)N1C2CC(C2)[C@H](NS(C)(=O)=O)[C@@H]1Cc1cccc(-c2ccccc2)c1F` [Example 56, N-{(3S,4S)-3-[(2-Fluoro[biphenyl]-3-yl)methyl]-2-propanoyl-2-azabicyclo[3.1.1]heptan-4-yl}methanesulfonamide]: 244 nM.
Take `CC(C)(O)C(=O)N1C2CC(F)(C2)C(NS(C)(=O)=O)C1Cc1cccc(-c2cc(F)cc(F)c2)c1F` (single isomer, unassigned) [Example 12, N-{5-Fluoro-2-(2-hydroxy-2-methylpropanoyl)-3-[(2,3',5'-trifluoro[biphenyl]-3-yl)methyl]-2-azabicyclo[3.1.1]heptan-4-yl}methanesulfonamide]: the EC50 was 27 nM.
Next, `CC[C@@H](O)C(=O)N1C2CC(C2)[C@H](NS(C)(=O)=O)[C@@H]1Cc1cccc(-c2cc(F)cc(F)c2)c1F` [Example 26, N-{(3S,4S)-2-[(2R)-2-Hydroxybutanoyl]-3-[(2,3',5'-trifluoro[biphenyl]-3-yl)methyl]-2-azabicyclo[3.1.1]heptan-4-yl}methanesulfonamide]: 35 nM.
